Experimental data taken from patent US20260294915A1, “COMBINATION THERAPY COMPRISING A MAT2A INHIBITOR AND A TOPOISOMERASE INHIBITOR, A SPLICING INHIBITOR SULFONAMIDE, OR A KIF18 INHIBITOR” (IDEAYA BIOSCIENCES, INC., priority 2023, published 2026).

What was measured:
Test in all cases: 10-day proliferation (CTG), equimolar Compound A + SPLAM (Example 4)
Assay type in all cases: cell-based
TCCSUP = details: 10 days, single agent or 1:1 combo; for IC80: read-out: gIC80; for IC90: read-out: gIC90; for IC50: Homo sapiens, TCC-SUP, 240 h, read-out: gIC50
Method: (§1) A 10-day proliferation assay was performed in a panel of 5 MTAP-deficient and 2 wild type non-small cell lung and bladder cancer cell lines. Optimal cell seeding for all cell lines was determined by assessing the growth over a range of seeding densities in a 384-well format to identify conditions that permitted proliferation for 10 days. Cells were then plated at the optimal seeding density and treated with 20-point, two-fold dilution series of Compound A, the splicing inhibitor sulfonamide (SPLAM), or an equimolar combination of Compound A and the SPLAM. Combinations tested included Compound A in combination with four structurally different SPLAMs. Concentrations tested for Compound A and each SPLAM alone or in combination ranged from 0.04 nM to 20,000 nM. A plate of cells was harvested at the time of compound addition to quantify the number of cells at the start of the combination (T0). For cell quantification, the harvested cells were lysed with Promega CellTiter-Glo (CTG) reagent according to the manufacturer's protocol and the chemiluminescent signal was detected on a Synergy Neo plate reader. CTG estimates cell number through detection of cellular ATP levels. Cells were incubated with the drug combinations at 37° C. with 5% CO2 for 10 days. Cells were then lysed with CTG and the chemiluminescent signal was measured.
(§2) CTG values obtained after the 10-day treatment were background subtracted and expressed as a percent of the T0 value. Data were plotted against compound concentration and fit with a four-parameter equation to generate dose response curves for each single agent and the equimolar combination. Growth ICx (gICx) values ranging from gIC30 to gIC100 were interpolated from the fitted curves. Synergistic growth inhibition was assessed by determination of Combination Index (CI) values at these various points across the titration using the mutually non-exclusive equation [Chou, 1983; Chou, 1981] shown below where A equals the gICx value of Compound A, B equals the gICx value of the SPLAM, and A+B or B+A equals the gICx value of the equimolar combination. A Combination Index value less than 1.0 was considered synergistic.

RT112/84 = details: 10 days, single agent or 1:1 combo; for IC80: read-out: gIC80; for IC90: read-out: gIC90; for IC50: Homo sapiens, RT112/84, 240 h, read-out: gIC50
Method: as §1, §2

SW900 = details: 10 days, single agent or 1:1 combo; for IC80: read-out: gIC80; for IC90: read-out: gIC90; for IC50: Homo sapiens, SW900, 240 h, read-out: gIC50
Method: as §1, §2

UMUC11 = details: 10 days, single agent or 1:1 combo; for IC50: 240 h, read-out: gIC50; for IC80: read-out: gIC80; for IC90: read-out: gIC90
Method: as §1, §2

UMUC5 = details: 10 days, single agent or 1:1 combo; for IC50: 240 h, read-out: gIC50; for IC80: read-out: gIC80; for IC90: read-out: gIC90
Method: as §1, §2

NCI-H520 = details: 10 days, single agent or 1:1 combo; for IC80: read-out: gIC80; for IC90: read-out: gIC90; for IC50: Homo sapiens, NCI-H520, 240 h, read-out: gIC50
Method: as §1, §2

NCI-H838 = details: 10 days, single agent or 1:1 combo; for IC80: read-out: gIC80; for IC90: read-out: gIC90; for IC50: Homo sapiens, NCI-H838, 240 h, read-out: gIC50
Method: as §1, §2

Question: Which gIC30 (TCCSUP) does the source give for `Cc1ccc(NS(=O)(=O)c2cccc(C#N)c2)c2[nH]cc(C#N)c12` [Compound E7820, 3-cyano-N-(3-cyano-4-methyl-1H-indol-7-yl)benzenesulfonamide] here?
Answer: 20 µM

Question: And the gIC40 (TCCSUP)?
Answer: 20 µM

Question: And the gIC60 (TCCSUP)?
Answer: 20 µM

Question: And the gIC70 (TCCSUP)?
Answer: 20 µM

Question: What about the gIC100 (TCCSUP) of the same molecule?
Answer: 20 µM

Question: What about the IC80 (TCCSUP) of the same molecule?
Answer: 20000 nM

Question: And the IC90 (TCCSUP)?
Answer: 20000 nM

Question: And the IC50 (TCCSUP)?
Answer: 20000 nM

Question: What about the gIC30 (RT112/84) of the same molecule?
Answer: 213 nM

Question: What about the gIC40 (RT112/84) of the same molecule?
Answer: 237 nM

Question: And the gIC60 (RT112/84)?
Answer: 290 nM

Question: What about the gIC70 (RT112/84) of the same molecule?
Answer: 326 nM

Question: What about the gIC100 (RT112/84) of the same molecule?
Answer: 10.429 µM

Question: What about the IC80 (RT112/84) of the same molecule?
Answer: 375 nM

Question: What about the IC90 (RT112/84) of the same molecule?
Answer: 466 nM

Question: And the IC50 (RT112/84)?
Answer: 262 nM

Question: And the gIC30 (SW900)?
Answer: 284 nM

Question: What about the gIC40 (SW900) of the same molecule?
Answer: 290 nM

Question: And the gIC60 (SW900)?
Answer: 303 nM

Question: And the gIC70 (SW900)?
Answer: 309 nM

Question: And the gIC100 (SW900)?
Answer: 362 nM

Question: And the IC80 (SW900)?
Answer: 318 nM

Question: And the IC90 (SW900)?
Answer: 330 nM

Question: And the IC50 (SW900)?
Answer: 296 nM

Question: What about the IC50 (UMUC11) of the same molecule?
Answer: 452 nM

Question: And the gIC30 (UMUC11)?
Answer: 361 nM

Question: What about the gIC40 (UMUC11) of the same molecule?
Answer: 404 nM

Question: What about the gIC60 (UMUC11) of the same molecule?
Answer: 511 nM

Question: And the gIC70 (UMUC11)?
Answer: 589 nM

Question: What about the gIC100 (UMUC11) of the same molecule?
Answer: 20 µM

Question: What about the IC80 (UMUC11) of the same molecule?
Answer: 713 nM

Question: And the IC90 (UMUC11)?
Answer: 1010 nM

Question: What about the IC50 (UMUC5) of the same molecule?
Answer: 460 nM

Question: And the gIC30 (UMUC5)?
Answer: 330 nM

Question: And the gIC40 (UMUC5)?
Answer: 390 nM

Question: And the gIC60 (UMUC5)?
Answer: 547 nM

Question: And the gIC70 (UMUC5)?
Answer: 673 nM

Question: And the gIC100 (UMUC5)?
Answer: 20 µM

Question: What about the IC80 (UMUC5) of the same molecule?
Answer: 900 nM

Question: And the IC90 (UMUC5)?
Answer: 1900 nM

Question: And the gIC30 (NCI-H520)?
Answer: 484 nM

Question: And the gIC40 (NCI-H520)?
Answer: 596 nM

Question: And the gIC60 (NCI-H520)?
Answer: 920 nM

Question: And the gIC70 (NCI-H520)?
Answer: 1214 nM

Question: What about the gIC100 (NCI-H520) of the same molecule?
Answer: 20 µM

Question: What about the IC80 (NCI-H520) of the same molecule?
Answer: 1840 nM

Question: What about the IC90 (NCI-H520) of the same molecule?
Answer: 12000 nM

Question: And the IC50 (NCI-H520)?
Answer: 734 nM

Question: What about the gIC30 (NCI-H838) of the same molecule?
Answer: 328 nM

Question: What about the gIC40 (NCI-H838) of the same molecule?
Answer: 357 nM

Question: And the gIC60 (NCI-H838)?
Answer: 425 nM

Question: And the gIC70 (NCI-H838)?
Answer: 472 nM

Question: And the gIC100 (NCI-H838)?
Answer: 20 µM

Question: What about the IC80 (NCI-H838) of the same molecule?
Answer: 539 nM

Question: And the IC90 (NCI-H838)?
Answer: 666 nM

Question: And the IC50 (NCI-H838)?
Answer: 388 nM

Question: With `NS(=O)(=O)c1ccc(S(=O)(=O)Nc2cccc3c(Cl)c[nH]c23)cc1` [Indisulam, N-(3-chloro-1H-indol-7-yl)benzene-1,4-disulfonamide] as the molecule, how does the gIC30 (TCCSUP) read?
Answer: 20 µM

Question: And the gIC40 (TCCSUP)?
Answer: 20 µM

Question: What about the gIC60 (TCCSUP) of the same molecule?
Answer: 20 µM

Question: And the gIC70 (TCCSUP)?
Answer: 20 µM

Question: And the gIC100 (TCCSUP)?
Answer: 20 µM

Question: What about the IC80 (TCCSUP) of the same molecule?
Answer: 20000 nM

Question: And the IC90 (TCCSUP)?
Answer: 20000 nM

Question: And the IC50 (TCCSUP)?
Answer: 20000 nM

Question: What about the gIC30 (RT112/84) of the same molecule?
Answer: 249 nM

Question: And the gIC40 (RT112/84)?
Answer: 273 nM

Question: And the gIC60 (RT112/84)?
Answer: 327 nM

Question: What about the gIC70 (RT112/84) of the same molecule?
Answer: 363 nM

Question: And the gIC100 (RT112/84)?
Answer: 20 µM

Question: And the IC80 (RT112/84)?
Answer: 414 nM

Question: What about the IC90 (RT112/84) of the same molecule?
Answer: 510 nM

Question: What about the IC50 (RT112/84) of the same molecule?
Answer: 298 nM

Question: And the gIC30 (SW900)?
Answer: 295 nM

Question: What about the gIC40 (SW900) of the same molecule?
Answer: 300 nM

Question: And the gIC60 (SW900)?
Answer: 310 nM

Question: And the gIC70 (SW900)?
Answer: 315 nM

Question: And the gIC100 (SW900)?
Answer: 357 nM

Question: And the IC80 (SW900)?
Answer: 321 nM

Question: And the IC90 (SW900)?
Answer: 331 nM

Question: And the IC50 (SW900)?
Answer: 305 nM

Question: And the IC50 (UMUC11)?
Answer: 472 nM

Question: What about the gIC30 (UMUC11) of the same molecule?
Answer: 369 nM

Question: And the gIC40 (UMUC11)?
Answer: 417 nM

Question: What about the gIC60 (UMUC11) of the same molecule?
Answer: 539 nM

Question: And the gIC70 (UMUC11)?
Answer: 628 nM

Question: And the gIC100 (UMUC11)?
Answer: 20 µM

Question: What about the IC80 (UMUC11) of the same molecule?
Answer: 769 nM

Question: What about the IC90 (UMUC11) of the same molecule?
Answer: 1110 nM

Question: And the IC50 (UMUC5)?
Answer: 420 nM

Question: And the gIC30 (UMUC5)?
Answer: 310 nM

Question: What about the gIC40 (UMUC5) of the same molecule?
Answer: 363 nM

Question: And the gIC60 (UMUC5)?
Answer: 487 nM

Question: And the gIC70 (UMUC5)?
Answer: 574 nM

Question: What about the gIC100 (UMUC5) of the same molecule?
Answer: 20 µM

Question: And the IC80 (UMUC5)?
Answer: 707 nM

Question: What about the IC90 (UMUC5) of the same molecule?
Answer: 990 nM

Question: And the gIC30 (NCI-H520)?
Answer: 470 nM

Question: And the gIC40 (NCI-H520)?
Answer: 546 nM

Question: And the gIC60 (NCI-H520)?
Answer: 743 nM

Question: What about the gIC70 (NCI-H520) of the same molecule?
Answer: 897 nM

Question: And the gIC100 (NCI-H520)?
Answer: 20 µM

Question: What about the IC80 (NCI-H520) of the same molecule?
Answer: 1160 nM

Question: And the IC90 (NCI-H520)?
Answer: 2070 nM

Question: What about the IC50 (NCI-H520) of the same molecule?
Answer: 633 nM

Question: And the gIC30 (NCI-H838)?
Answer: 276 nM

Question: And the gIC40 (NCI-H838)?
Answer: 300 nM

Question: And the gIC60 (NCI-H838)?
Answer: 355 nM

Question: What about the gIC70 (NCI-H838) of the same molecule?
Answer: 393 nM

Question: What about the gIC100 (NCI-H838) of the same molecule?
Answer: 20 µM

Question: What about the IC80 (NCI-H838) of the same molecule?
Answer: 448 nM

Question: What about the IC90 (NCI-H838) of the same molecule?
Answer: 551 nM

Question: What about the IC50 (NCI-H838) of the same molecule?
Answer: 325 nM
